From patent publication US8450308B2 (Vitae Pharmaceuticals, Inc., priority 2008, dated 2013) come the findings set out here.

A short description of the test: BACE cell assay: soluble Amyloid Beta 1-40 (Aβ 1-40) in culture media of H4-APPsw cells. The test is classed as cell-based. On the procedure:
H4 neuroglioma cell line that stably expresses Amyloid Precursor Protein (APP) containing the KM-NL Swedish mutation (H4-APPsw) was generated. For the assay, cells are treated overnight in the presence of inhibitor and the culture media are subjected to ELISA analysis of soluble Amyloid Beta 1-40 (Aβ 1-40).
H4 neuroglioma cell line was cultured in DMEM with 10% FBS and 1% penicillin/streptomycin (Culture Medium) at 37° C., 5% CO2. […] 24 hrs after transfection, the cells were replaced into three new plates (150 mm) in fresh Culture Medium with 250 ug/ml Zeocin. […] The levels of APPsw expression were analyzed by immunoblotting and the production of Aβ 1-40 was detected by ELISA of culture supernatants. The selected clones are maintained in Culture Medium with 250 μg/ml Zeocin and routinely split in 3-4 days to maintain 20-80% confluence.
Split cells. Split H4-APPsw cells in Culture Medium and culture overnight such that cells will be ˜80% confluent next morning.
Create Compound Dilution Plate. After determining the desired final concentration of compound to be tested, create a 500× dilution plate. Add DMSO, but not inhibitor, to each well of Column 1. […] Add compounds of interest at 500× desired final concentration to wells A3-A10. Add DMSO, but not inhibitor, to each well of Columns 11 and 12. Dilute contents of Row A 1:3 in Row B. then continue through Rows C—H.
Create Media Plate. To create a 2× solution of compound in media, add 996 μL Culture Medium to each well of a 96-well 2 ml deep well plate (Media Plate) in biosafety hood. Add 4 μL 5 mM control compound to Media Plate wells A1-D1 for determination of full inhibition.
Add media to Cell Plate. With a multichannel pipettor, mix each well of Media Plate several times to insure homogeneity. Add 100 μL of mixture to Black polymer bottom P-D-L plates. Next, place Medium Plate and Cell Plate in the incubator.
Add cells to Cell Plate. Trypsinize and count H4-APPsw cells. Dilute cells 6×10^5 cells/ml in Culture Medium and remove Cell Plate from incubator. Vortex cells to homogeneity, then using a multichannel repeating pipettor, add 100 μL cell suspension to Cell Plate, adding cells from Row H to Row A. Place Cell Plate in incubator.
Change media in Cell Plate. After 5 h, check Cell Plate by microscope to insure cells are attached. In culture hood, remove media from Cell Plate using multichannel repeating pipettor. Add 100 μl Culture Medium to each well. Remove Media Plate from incubator and mix with pipettor as previous. Add 100 μl from each well of Media Plate to corresponding well in Cell Plate. Place Cell Plate in incubator overnight.
Perform ELISA to determine levels of secreted Aβ 1-40. After 16 h incubation, spin Cell Plate for 8 min at 1200 rpm. The primary reading of Aβ 1-40 levels is done using PerkinElmer AlphaLISA technology. Follow the manufacturer's protocol for performing AlphaLISA in a white ½ area Optiwell plate using Row 12 for peptide standard (1:2 dilutions, starting at 15 ng/ml). Data are acquired using PerkinElmer Fusion-Alpha FP-HT, Alpha protocol (Count Time 0.6 s, Count Time Ratio 30%:70%).
Export data from Fusion using Columnar Report format into a separate file for each plate. Upload data into Activity Base using RIA-DOSE-RESPONSE protocol (Version 1). Data from at least eight doses were fitted to a four parameter logistical model using XLfit software to determine potency.

Setting [1] is: in vitro cell activity, H4-APPsw cells, secreted Aβ 1-40, overnight treatment, read-out: IC50.

Read-outs that look alike come from different tables or passages of the source.

Take `CN1C(=O)C2(C[C@H](C3CCCc4ccccc43)Oc3ccc(-c4cccc(C#N)c4)cc32)N=C1N` (stereo in doubt) [Compound 188, 3-(2′-amino-1′-methyl-5′-oxo-2-(1,2,3,4-tetrahydronaphthalen-1-yl)-1′,5′-dihydrospiro[chroman-4,4′-imidazole]-6-yl)benzonitrile]: the IC50 (as a rule, the concentration that inhibits the measured activity by half) under setting [1] was 100 to 500 nM.
The same measure, in the same setting: next, `CN1OC2(CC3(CCCc4ccccc4C3)Oc3ccc(-c4cc(C#N)cc(C#N)c4)cc32)N=C1N` (stereo not shown) [Compound 178]: 1 to 100 nM; `CN1C(=O)C2(CC3(CCCc4ccccc4C3)Oc3ccc(-c4cccc(C#N)c4)cc32)N=C1N` (stereo not shown) [Compound 179]: 1 to 100 nM; `CN1OC2(CC(C3CCCc4ccccc43)Oc3ccc(-c4cc(C#N)cc(C#N)c4)cc32)N=C1N` (stereo not shown) [Compound 180]: 100 to 500 nM.
Regarding `CN1OC2(CC3(CCCc4ccccc4C3)Oc3ccc(-c4cccnc4)cc32)N=C1N` (stereo not shown) [Compound 181], under setting [1], the IC50 was in the range of 1 to 100 nM.
Still for that read-out and setting: the same measure for `CN1C(=O)C2(CC(C3CCOC(C)(C)C3)Oc3ccc(-c4ccc(F)c(C#N)c4)cc32)N=C1N` (stereo not shown) [Compound 182]: 1 to 100 nM.
On the same count and under the same terms, the same measure for `CN1C(=O)C2(CC(C3CCOC(C)(C)C3)Oc3ccc(-c4cc(Cl)cc(C#N)c4)cc32)N=C1N` (stereo not shown) [Compound 183]: 1 to 100 nM; for `CN1C(=O)C2(CC(C3CCOC(C)(C)C3)Oc3ccc(-c4cccc(OC(F)(F)F)c4)cc32)N=C1N` (stereo not shown) [Compound 184]: 1 to 100 nM; for `CN1C(=O)C2(CC(C3CCOC(C)(C)C3)Oc3ccc(-c4cc(C#N)cc(C#N)c4)cc32)N=C1N` (stereo not shown) [Compound 185]: 1 to 100 nM.
Take `CN1OC2(CC3(CCCc4ccccc4C3)Oc3ccc(-c4cc(F)cc(C#N)c4)cc32)N=C1N` (stereo not shown) [Compound 186]: under setting [1], the IC50 was in the range of 500 to 1000 nM.
On the same count and under the same terms, the same measure for `CN1C(=O)[C@@]2(C[C@@H](C3CCOC(C)(C)C3)Oc3ccc(-c4ccc(F)c(Cl)c4)cc32)N=C1N` (stereo partly shown) [Compound 187]: 1 to 100 nM; for `CN1OC2(CC3(CCCc4ccccc4C3)Oc3ccc(-c4cccc(Cl)c4)cc32)N=C1N` (stereo not shown) [Compound 189]: 500 to 1000 nM.
Still for that read-out and setting: the same measure for `CN1C(=O)C2(C[C@H](C3CCOC(C)(C)C3)Oc3ccc(-c4cc(F)cc(Cl)c4)cc32)N=C1N` (stereo partly shown) [Compound 190]: 1 to 100 nM.
Still for that read-out and setting: next, `CN1OC2(CC3(CCCc4ccccc4C3)Oc3ccc(-c4cc(Cl)cc(C#N)c4)cc32)N=C1N` (stereo not shown) [Compound 191]: 100 to 500 nM.
As to `CN1OC2(CC3(CCCc4ccccc4C3)Oc3ccc(-c4ccc(F)c(Cl)c4)cc32)N=C1N` (stereo not shown) [Compound 192], the IC50 under setting [1] lay within 500 to 1000 nM.
On the same count and under the same terms, next, `COc1cc(Cl)cc(-c2ccc3c(c2)C2(CC(C4CCOC(C)(C)C4)O3)N=C(N)N(C)C2=O)c1` (stereo not shown) [Compound 193]: 1 to 100 nM; `CN1C(=O)C2(CC(C3CCOC(C)(C)C3)Oc3ccc(-c4cc(F)cc(C#N)c4)cc32)N=C1N` (stereo not shown) [Compound 194]: 1 to 100 nM; `CN1C(=O)C2(CC(C3CCOC(C)(C)C3)Oc3ccc(-c4cc(F)cc(C(F)(F)F)c4)cc32)N=C1N` (stereo not shown) [Compound 195]: 1 to 100 nM.
As for `CN1C(=O)C2(CC(C3CCOC(C)(C)C3)Oc3ccc(-c4cc(Cl)cc(Cl)c4)cc32)N=C1N` (stereo not shown) [Compound 196], the IC50 under setting [1] fell in the range of 1 to 100 nM.
Consider `CN1C(=O)C2(CC(C3CCOC(C)(C)C3)Oc3ccc(-c4cccc(Cl)c4)cc32)N=C1N` (stereo not shown) [Compound 197], for which the IC50 under setting [1] lay in the range of 1 to 100 nM.
Same read-out and setting: the same measure for `CN1OC2(CC(C3CCCc4ccccc43)Oc3ccc(-c4cc(F)cc(C#N)c4)cc32)N=C1N` (stereo not shown) [Compound 198]: 1000 to 5000 nM.
`CN1OC2(CC3(CCCc4ccccc4C3)Oc3ccc(-c4ccc(F)c(C#N)c4)cc32)N=C1N` (stereo not shown) [Compound 199]: the IC50 under setting [1] was in the range of 100 to 500 nM.
The same measure, in the same setting: next, `CN1C(=O)C2(CC(C3CCOC(C)(C)C3)Oc3ccc(-c4cccc(C(F)(F)F)c4)cc32)N=C1N` (stereo not shown) [Compound 200]: 1 to 100 nM; `CN1O[C@@]2(C[C@@H](C3CCCc4ccccc43)Oc3ccc(-c4ccc(F)c(C#N)c4)cc32)N=C1N` (stereo partly shown) [Compound 201]: 1000 to 5000 nM; `CN1C(=O)[C@@]2(C[C@]3(CCCOC3)Oc3ccc(-c4cc(Cl)cc(Cl)c4)cc32)N=C1N` [Compound 202]: 1 to 100 nM.
`CN1C(=O)[C@@]2(C[C@]3(CCCOC3)Oc3ccc(-c4cc(Cl)cc(C#N)c4)cc32)N=C1N` [Compound 203]: the IC50 under setting [1] fell in the range of 1 to 100 nM.
The same measure, in the same setting: next, `CN1OC2(CC(C3COCc4ccccc43)Oc3ccc(-c4cccc(C#N)c4)cc32)N=C1N` (stereo not shown) [Compound 204]: 1000 to 5000 nM.
`CN1O[C@@]2(C[C@]3(CCCc4ccccc4C3)Oc3ccc(-c4cccc(C#N)c4)cc32)N=C1N` [Compound 205]: under setting [1], the IC50 was 100 to 500 nM.
Still for that read-out and setting: next, `CN1C(=O)C2(CC(C34CCC(CC3)OC4)Oc3ccc(-c4cccc(C#N)c4)cc32)N=C1N` (stereo not shown) [Compound 206]: 100 to 500 nM.
Same read-out and setting: next, `CN1O[C@@]2(C[C@@H]([C@H]3CCOC(C)(C)C3)Oc3ccc(-c4cccc(C#N)c4)cc32)N=C1N` [Compound 207]: 100 to 500 nM; `CN1OC2(CC(C3CCCc4ccccc43)Oc3ccc(-c4cc(Cl)cc(C#N)c4)cc32)N=C1N` (stereo not shown) [Compound 208]: 1000 to 5000 nM; `CN1O[C@@]2(C[C@@]3(CCCc4ccccc4C3)Oc3ccc(-c4cccc(C#N)c4)cc32)N=C1N` [Compound 209]: 1000 to 5000 nM.
The same measure, in the same setting: the same measure for `CN1O[C@]2(C[C@H]([C@@H]3CCOC(C)(C)C3)Oc3ccc(-c4cccc(C#N)c4)cc32)N=C1N` [Compound 211]: 100 to 500 nM; for `CN1C(=O)C2(CC(C3CCOC(C)(C)C3)Oc3ccc(-c4cccc(C#N)c4F)cc32)N=C1N` (stereo not shown) [Compound 212]: 1 to 100 nM.
In the case of `CN1C(=O)C2(CC(C3CCOC(C)(C)C3)Oc3ccc(-c4cc(C#N)cc(C(F)(F)F)c4)cc32)N=C1N` (stereo not shown) [Compound 213], under setting [1], the half-maximal inhibitory concentration (IC50) was in the range of 1 to 100 nM.
On the same count and under the same terms, next, `COc1cc(Cl)cc(-c2ccc3c(c2)[C@]2(C[C@]4(CCCOC4)O3)N=C(N)N(C)C2=O)c1` [Compound 214]: 1 to 100 nM; `CN1C(=O)[C@@]2(C[C@]3(CCCOC3)Oc3ccc(-c4cc(F)cc(Cl)c4)cc32)N=C1N` [Compound 215]: 100 to 500 nM.
The same measure, in the same setting: next, `CN1C(=O)[C@@]2(C[C@]3(CCCOC3)Oc3ccc(-c4cc(C#N)cc(C(F)(F)F)c4)cc32)N=C1N` [Compound 216]: 1 to 100 nM.
`CN1OC2(CC3(CCCc4ccccc4C3)Oc3ccc(-c4cccc(C#N)c4)cc32)N=C1N` (stereo not shown) [Compound 217] showed an IC50 of 100 to 500 nM.
For `CN1C(=O)C2(CC(C3CCOC(C)(C)C3)Oc3ccc(-c4cc(C#N)ccc4F)cc32)N=C1N` (stereo not shown) [Compound 218], the IC50 under setting [1] was 1 to 100 nM.
On the same count and under the same terms, the same measure for `CN1O[C@]2(C[C@]3(CCCc4ccccc4C3)Oc3ccc(-c4cccc(C#N)c4)cc32)N=C1N` [Compound 220]: 100 to 500 nM.
Still for that read-out and setting: the same measure for `CN1O[C@@]2(C[C@H](C3CCCc4ccccc43)Oc3ccc(-c4ccc(F)c(C#N)c4)cc32)N=C1N` (stereo partly shown) [Compound 221]: 1000 to 5000 nM.
Still for that read-out and setting: next, `Cc1ccc(C#N)cc1-c1ccc2c(c1)[C@]1(C[C@H](C3CCOC(C)(C)C3)O2)N=C(N)N(C)C1=O` (stereo partly shown) [Compound 222]: 1 to 100 nM; `COc1cc(C#N)cc(-c2ccc3c(c2)C2(CC4(CCCOC4)O3)N=C(N)N(C)C2=O)c1` (stereo not shown) [Compound 223]: 1 to 100 nM; `CN1C(=O)[C@@]2(C[C@]3(CCCOC3)Oc3ccc(-c4cccc(Cl)c4)cc32)N=C1N` [Compound 224]: 100 to 500 nM.
Take `COc1cccc2c1CCCC1(C2)CC2(N=C(N)N(C)O2)c2cc(-c3cccc(C#N)c3)ccc2O1` (stereo not shown) [Compound 225]: the IC50 under setting [1] is 500 to 1000 nM.
On the same count and under the same terms, the same measure for `CN1OC2(CC(C3CCc4ccccc43)Oc3ccc(-c4cccc(C#N)c4)cc32)N=C1N` (stereo not shown) [Compound 226]: 1000 to 5000 nM; for `CN1OC2(CC3(CCCc4ccccc4C3)Oc3ccc(-c4cc(F)cc(Cl)c4)cc32)N=C1N` (stereo not shown) [Compound 227]: 1000 to 5000 nM.
Same read-out and setting: next, `CN1O[C@]2(C[C@@]3(CCCc4ccccc4C3)Oc3ccc(-c4cccc(C#N)c4)cc32)N=C1N` [Compound 228]: 500 to 1000 nM.
